Drawing on PubChem BioAssay AID401 (SGCOxCompounds, 2006), this text covers inhibition for 42 molecules.

Tyrosine-protein phosphatase non-receptor type 7 (Homo sapiens), sequence (P35236 whole entry, looked up): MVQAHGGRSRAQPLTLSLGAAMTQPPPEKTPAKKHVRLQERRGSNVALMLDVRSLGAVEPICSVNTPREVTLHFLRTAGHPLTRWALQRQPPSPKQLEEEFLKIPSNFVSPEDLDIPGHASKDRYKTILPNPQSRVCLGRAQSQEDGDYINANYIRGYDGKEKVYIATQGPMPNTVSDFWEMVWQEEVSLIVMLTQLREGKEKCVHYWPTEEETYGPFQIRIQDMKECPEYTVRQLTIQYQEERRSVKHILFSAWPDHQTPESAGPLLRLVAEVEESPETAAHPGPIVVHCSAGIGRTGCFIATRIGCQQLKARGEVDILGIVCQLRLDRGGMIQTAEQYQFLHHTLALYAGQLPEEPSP

One assay concerns the target Tyrosine-protein phosphatase non-receptor type 7 (Homo sapiens) (UniProt P35236). Put plainly: PTPN7 phosphatase inhibitors, biochemical, DiFMUP fluorescence, recombinant human enzyme (AID 401). The settings on record: at 50 µM, enzyme 37.6 ng/mL, 25 °C, DTT 5 mM, hits give high values.
`O=C(O)c1ccc(O)cn1.OO.[O]=[V]`: the inhibition (in general, the drop in the measured response relative to a control, in per cent) is 58.5%. Consider `OO.OO.[K+].[O]=[V].c1cnc2c(c1)ccc1cccnc12`, for which the inhibition is 55%. For the molecule `O=C([O-])c1ccccn1.OO.OO.[K+].[K+].[O]=[V]`, the inhibition was 71.5%. Regarding `Cn1nc(-c2ccccc2)nc2c(=O)n(C)c(=O)nc1-2`, the inhibition is 37%.

The same assay, now with this note: at 50 µM, enzyme 55 ng/mL, 25 °C, DTT 5 mM, hits give high values.
`Cc1ccc(C)n1-c1ccc(C(=O)O)cc1O`: the inhibition is 47%. The same measure, in the same setting: as for `Cc1cc(C)c(N2C(=O)c3ccc(C(=O)Nc4ccc(O)cc4C(=O)O)cc3C2=O)c(C)c1`, the figure is 44%. Consider `O=C(O)c1ccc(O)c(C=Nc2ccc3oc(-c4cccc(Cl)c4)nc3c2)c1`, for which the inhibition is 25%.

`Oc1c(Cl)c(Cl)c(O)c2nsnc12`: the inhibition is 24%. For `O=C(O)c1ccc(O)c(C=Nc2ccc3oc(-c4ccccc4)nc3c2)c1`, the inhibition is 31%. Take `CC(C)CN1C(=O)c2ccc(C(=O)Nc3ccc(O)cc3C(=O)O)cc2C1=O`: the inhibition is 26%. The same measure, in the same setting: as for `CC(C)CCN1C(=O)c2ccc(C(=O)Nc3ccc(O)cc3C(=O)O)cc2C1=O`, the figure is 45%. For `CC1=C(C)OC(Nc2ccc(Cl)cc2C(=O)O)C=C1` (configuration not stated), the inhibition was 25%.

`Cc1ccc(N=Cc2cc(C(=O)O)ccc2O)c(O)c1`: the inhibition is 42%.

With `O=C(O)c1ccc(O)c(N2C(=O)Nc3ccccc3N2O)c1`, the inhibition was 41%. Turning to `COc1cccc(-c2nc3cc(N=Cc4cc(C(=O)O)ccc4O)ccc3o2)c1`, the inhibition was 56%.

Turning to `OO.OO.[K+].[O]=[V].c1ccc(-c2ccccn2)nc1`, the inhibition is 69%. On the same count and under the same terms, as for `CCn1nc(-c2ccccc2)nc2c(=O)n(C)c(=O)nc1-2`, the figure is 16%. With `O=C(Nc1ccc(O)cc1C(=O)O)c1ccc2c(c1)C(=O)N(CC1CCCO1)C2=O` (configuration not stated), the inhibition was 35%. Consider `O=C(O)c1ccc(O)c(C=Nc2ccc3oc(-c4ccc(F)cc4Cl)nc3c2)c1`, for which the inhibition was 100%. Regarding `CN(N=O)c1ccc(O)c(O)c1`, the inhibition was 92%. Turning to `COc1ccc(OC)c(N=Cc2cc(C(=O)O)ccc2O)c1`, the inhibition was 31%. The same measure, in the same setting: the result for `CCn1nc(/C=C/c2ccccc2)nc2c(=O)n(C)c(=O)nc1-2` reads 39%; that for `CCn1nc(/C=C/c2ccccc2)[n+](=O)c2c(=O)n(C)c(=O)[nH]c21`, 32%; that for `Cc1c(Cl)c(C)c([N+](=O)[O-])c(O)c1C=Nc1ccc(O)cc1C(=O)O`, 62%. With `O=C(O)c1ccc(O)c(/C=N/N(CCO)C2=NS(=O)(=O)c3ccccc32)c1`, the inhibition was 57%. For the molecule `Cc1ccc2nc(-c3cc(N=Cc4cc(C(=O)O)ccc4O)ccc3O)[nH]c2c1`, the inhibition was 98%. For the molecule `Cc1ccc(C)n1-c1cc(C(=O)O)ccc1O`, the inhibition is 77%. In the case of `[NH-]CO.[NH-]CO.[NH-]CO.[NH-]CO.[O]=[V][O][V]=[O]`, the inhibition was 58%. The same measure, in the same setting: the result for `O=C(COc1ccc([N+](=O)[O-])cc1)Nc1ccc(O)cc1C(=O)O` reads 13%. The same measure, in the same setting: the result for `NC1=NC(=O)/C(=C/C=C/c2ccc([N+](=O)[O-])o2)S1` reads 94%; that for `O=C(O)c1ccc(O)c(C=Nc2ccc3oc(-c4cc(Cl)ccc4Cl)nc3c2)c1`, 39%; that for `O=C(O)c1ccc(O)c(C=Nc2cccc(-c3nc4ccccc4o3)c2)c1`, 40%. With `CCn1nc(-c2ccc(Cl)cc2)nc2c(=O)n(C)c(=O)nc1-2`, the inhibition is 58%. Same read-out and setting: as for `O=C1NC(=S)S/C1=C\C=C\c1ccc([N+](=O)[O-])o1`, the figure is 99%; as for `O=C1NC(=S)NC(=O)C1=C/C=C/c1ccco1`, 97%. With `COc1ccc(-c2nc3cc(N=Cc4cc(C(=O)O)ccc4O)ccc3o2)cc1`, the inhibition is 80%.

Take `CCOC(=O)c1ccc(N=Cc2cc(C(=O)O)ccc2O)cc1`: the inhibition was 39%. Take `Cc1cccc(O)c1N=Cc1cc(C(=O)O)ccc1O`: the inhibition is 37%.

With `O=C(O)c1ccc([O-])cn1.OO.OO.[K+].[K+].[O]=[V]`, the inhibition was 76%. On the same count and under the same terms, the result for `O=C(O)c1ccc(O)c(C=Nc2ccc3oc(-c4cccc(Cl)c4Cl)nc3c2)c1` reads 61%; that for `CC(=O)c1ccc2c(c1)C1C=CCC1C(C(=O)O)N2` (configuration not stated), 89%; that for `Cn1nc(/C=C/c2ccccc2)nc2c(=O)n(C)c(=O)nc1-2`, 45%.
